From article PMC6892255, “Identification of a potent small-molecule inhibitor of bacterial DNA repair that potentiates quinolone antibiotic activity in methicillin-resistant Staphylococcus aureus^” (Bioorganic & Medicinal Chemistry, 2019) come the findings set out here.

Experiment [1] deals with methicillin-resistant S. aureus (MRSA, USA300 JE2). Kind of experiment: MIC / growth inhibition assay (end-point OD600), single agent. It is filed as cell-based, Staphylococcus aureus. As to conditions: for fold less potent against JE2 compared to SH1000: ratio of single-agent EC50 values. The source says: (§1) Minimum inhibitory concentration (MIC) assays were used to evaluate the antimicrobial activity of compounds against Gram-negative (E. coli) and Gram-positive (S. aureus) bacteria. […] Gram-positive bacteria are more susceptible to small-molecule penetration, and compounds were therefore assessed for growth inhibition against the S. aureus SH1000 strain.
Methicillin-resistant S. aureus (MRSA) is a multi-drug resistant bacterium responsible for a large number of nosocomial infections.[34] The emergence of community associated (CA)-MRSA capable of infection of healthy individuals highlights its significance and clinical relevance.[35]
(§2) 2.1. Biological and biochemical methods
(§3) Bacterial strains and culture conditions
(§4) Strains utilized in the present study are detailed in Table S1. All strains used were cultivated on Mueller Hinton Agar (MHA) and grown to stationary-phase in Mueller Hinton Broth (MHB) at 37 °C for 16 h, with shaking at 180 r.p.m.
(§5) Minimum inhibitory concentration (MIC) assays
(§6) MIC assays were performed in 96 well plates and MICs were determined in accordance with the broth microdilution protocol.4 Strains grown to stationary-phase in MHB were adjusted to 5 x 10^5 colony-forming units (CFU)/mL in fresh MHB (100 µL/well) supplemented with DMSO to ensure a constant concentration of 0.5% (v/v) DMSO across all experiments. Where […]
(§7) or H2O2 (200 μM). Test compounds were prepared as two-fold serial dilutions. Cells were […]
(§8) as the lowest concentration with no visible bacterial growth, and the optical density at 600 nm (OD600) was recorded. OD600 measurements were background corrected against no-inocula control and normalized to DMSO control for dose-response analysis. The EC50 value mean and SEM were calculated from individual EC50 values from three biological replicates. […]

The test system of a further experiment is S. aureus SH1000. The experiment is described as above. Format: cell-based. Particulars: Staphylococcus aureus, SH1000, 18 h, end-point OD600 after 18 h, read-out: EC50 S. aureus (SH1000) Compound only.
Excerpt: as §1, §2, §3, §4, §5, §6, §7, §8

For a further experiment, the target named is T1, E. coli topoisomerase IV (Escherichia coli, UniProt P0AFI2+P20083).
T1 construct: purchased Inspiralis
Kind of experiment: Topoisomerase IV supercoiling relaxation assay (pQE80L). It is filed as biochemical. Particulars: at 12.5 µM (compounds). The procedure: 2.1. Biological and biochemical methods […]
E. coli DNA gyrase supercoiling assay (Inspiralis) was performed according to the manufacturer’s instructions, ensuring a constant concentration of 1% (v/v) DMSO. Samples were separated on a 1% (w/v) agarose gel prepared with Tris/Borate/EDTA (TBE) buffer (1 M Tris-borate, 20 mM EDTA, pH 8.0). Electrophoresis was performed at 100 V until the bromophenol blue dye had run >6 cm to ensure resolution of relaxed and supercoiled DNA.
The gel was stained with SYBR Safe DNA gel stain (Invitrogen, 1:10,000 dilution in TBE) for 30 min, and visualized on a Syngene Gel Doc system. Band intensity was quantified using ImageJ software and the fraction of supercoiled plasmid was determined as the ratio of the density of the supercoiled band to the total density. Values were background corrected against the no-gyrase control and normalized to DMSO control for dose-response analysis.
E. coli topoisomerase IV supercoiling relaxation assay (Inspiralis) was performed according to the manufacturer’s instructions, ensuring a constant concentration of 1% (v/v) DMSO.
Supercoiled pQE80L was prepared via plasmid purification and used as the substrate for the reaction. Reactions were analyzed as described for DNA gyrase assays. […]

In a further experiment the test system is E. coli K-12 BW25113. Kind of experiment: MIC / growth inhibition assay (end-point OD600), single agent. Format: cell-based, Escherichia coli. As to conditions: for EC50: Escherichia coli, BW25113, end-point OD600 after 18 h, read-out: EC50 E. coli (K12 BW25113) Compound only.
Excerpt: as §1, §2, §3, §4, §5, §6, §7, §8

The subject of experiment [2] is methicillin-resistant S. aureus (MRSA, USA300 JE2). Kind of experiment: Ciprofloxacin (CFX) potentiation in MRSA growth inhibition assay. Format: cell-based, Staphylococcus aureus. Particulars: for EC50: read-out: EC50 S. aureus (USA300 JE2) Compound + CFX (9.4 μM), in presence of half-MIC CFX (9.4 μM). Here is the method: as §2, §3, §4, §5, §6, §7, §8
Experiment [3] has as its system MRSA (USA300 JE2). Kind of experiment: Growth inhibition in the presence of H2O2. It is filed as cell-based, Staphylococcus aureus. Particulars: read-out: EC50 Compound + H2O2 (200 µM); MRSA USA300 JE2, H2O2 200 µM. Here is the method: (§9) The analogue panel was further tested for potentiation of alternative DNA-damaging agents Mitomycin-C (MMC) and hydrogen peroxide (Table S2), which function via alkylation and oxidization DNA bases, respectively.
as §2, §3, §4, §5, §6, §7, §8

In experiment [4] the test system is MRSA (USA300 JE2). Kind of experiment: Growth inhibition in the presence of mitomycin-C. It is filed as cell-based, Staphylococcus aureus. As to conditions: read-out: EC50 Compound + MMC (0.40 µM); MRSA USA300 JE2, mitomycin-C 0.40 µM. Here is the method: as §9, §2, §3, §4, §5, §6, §7, §8
A further experiment deals with JE2. Kind of experiment: Synergy experiments with CFX (growth rate method, Chou-Talalay, CompuSyn). It is filed as cell-based, Staphylococcus aureus. Particulars: for Combination index (CI) with CFX: JE2, constant-ratio combination with CFX, CompuSyn; for EC50: Staphylococcus aureus, JE2, rate of exponential growth phase over 17 h at 37 °C. Here is the method: A more precise method to determine EC50 values for individual compounds and combinations was used to increase accuracy for CI calculations. […]
Synergy experiments were performed as described for MIC assays. Two-fold serial dilutions […]
carried out at 37 °C, with shaking at 220 r.p.m. OD600 was recorded every 30 min over a 17 h period. Measurements were background corrected against the no-inocula control before a growth curve of OD600 against time was constructed. The gradient of the exponential phase was obtained by linear regression. Gradients were normalized against the smallest and largest value within the respective data set prior to analysis with the CompuSyn software (http://www.combosyn.com/) to calculate combination index (CI) and dose-reduction index (DRI) values for each drug combination. […]

[5] abbreviates: Staphylococcus aureus, 18 h, read-out: EC50 S. aureus (USA300 JE2) Compound only, single agent, end-point OD600 after 18 h.

The term EC50 denotes the midpoint of the concentration-response curve.

T1 sequence (P0AFI2 whole entry): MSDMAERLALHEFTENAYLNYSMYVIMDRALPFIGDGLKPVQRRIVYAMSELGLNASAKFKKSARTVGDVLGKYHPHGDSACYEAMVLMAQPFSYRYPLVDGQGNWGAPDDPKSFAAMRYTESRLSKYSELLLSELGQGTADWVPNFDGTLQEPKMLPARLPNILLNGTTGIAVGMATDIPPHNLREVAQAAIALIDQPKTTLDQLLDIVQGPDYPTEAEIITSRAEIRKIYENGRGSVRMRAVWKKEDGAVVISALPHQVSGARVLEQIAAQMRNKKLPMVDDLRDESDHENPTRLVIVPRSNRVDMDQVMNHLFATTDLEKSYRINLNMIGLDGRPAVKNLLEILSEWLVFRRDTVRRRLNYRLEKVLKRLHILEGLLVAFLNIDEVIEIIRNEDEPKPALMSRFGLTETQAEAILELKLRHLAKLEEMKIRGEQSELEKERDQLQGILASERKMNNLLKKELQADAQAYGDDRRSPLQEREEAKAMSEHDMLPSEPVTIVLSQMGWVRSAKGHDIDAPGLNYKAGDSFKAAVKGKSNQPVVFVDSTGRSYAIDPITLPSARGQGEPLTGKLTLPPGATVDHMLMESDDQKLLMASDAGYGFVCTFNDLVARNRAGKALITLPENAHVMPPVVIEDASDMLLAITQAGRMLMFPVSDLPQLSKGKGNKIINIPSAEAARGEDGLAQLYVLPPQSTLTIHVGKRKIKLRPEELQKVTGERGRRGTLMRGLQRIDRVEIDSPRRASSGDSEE
T1 sequence (P20083 whole entry): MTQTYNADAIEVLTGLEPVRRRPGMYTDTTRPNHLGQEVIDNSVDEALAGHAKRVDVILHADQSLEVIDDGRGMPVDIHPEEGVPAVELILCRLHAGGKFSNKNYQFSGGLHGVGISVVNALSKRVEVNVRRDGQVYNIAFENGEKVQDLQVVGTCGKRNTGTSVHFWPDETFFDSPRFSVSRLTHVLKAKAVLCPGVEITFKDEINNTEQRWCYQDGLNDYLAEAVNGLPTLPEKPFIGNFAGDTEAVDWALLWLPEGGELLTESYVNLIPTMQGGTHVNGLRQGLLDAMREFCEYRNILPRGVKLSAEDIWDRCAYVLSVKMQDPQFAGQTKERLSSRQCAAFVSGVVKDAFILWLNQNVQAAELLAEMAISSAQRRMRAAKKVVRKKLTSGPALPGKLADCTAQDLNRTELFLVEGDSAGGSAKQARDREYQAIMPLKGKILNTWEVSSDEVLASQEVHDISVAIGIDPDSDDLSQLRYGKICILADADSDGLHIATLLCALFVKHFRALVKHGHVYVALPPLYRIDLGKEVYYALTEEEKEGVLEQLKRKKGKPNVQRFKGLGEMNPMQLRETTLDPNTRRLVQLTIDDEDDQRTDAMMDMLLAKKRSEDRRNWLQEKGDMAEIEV

With `CCn1cc(C(=O)O)c(=O)c2cnc(N3CCN(C(=S)Nc4cccc(C(F)(F)F)c4)CC3)nc21` [Compound 1, reference compound], the EC50 is 6900 ± 600 nM in experiment [1] (setting [5]); 8200 ± 1700 nM in the experiment on S. aureus SH1000; > 100000 nM with E. coli K-12 BW25113; 1100 ± 100 nM in experiment [2]; 6500 ± 100 nM in the experiment with MRSA (USA300 JE2) [3]; 3300 ± 600 nM in the experiment on MRSA (USA300 JE2) [4]. For the same compound, in the experiment on JE2, the half-maximal effective concentration (EC50) is 5900 ± 200 nM. The “Inhibition of topoisomerase IV” value on E. coli topoisomerase IV was “not inhibited and not”. Also, the “Combination index (CI) with CFX” value with JE2 is given as 1.0.
As for `CCn1cc(C(=O)O)c(=O)c2cnc(N3CCN(C(=S)Nc4cccc(Cl)c4)CC3)nc21` [Compound 5], the EC50 was ~6000 nM in experiment [1] (setting [5]); 6900 ± 100 nM in experiment [1] (read-out: EC50 S. aureus (USA300 JE2) Compound only, single agent, end-point OD600 after 18 h); ~6000 nM with S. aureus SH1000; > 100000 nM with E. coli K-12 BW25113; 310 ± 20 nM in experiment [2]; 8400 ± 200 nM in the experiment with MRSA (USA300 JE2) [3]. Also, the EC50 in the experiment with MRSA (USA300 JE2) [4] came to 4500 ± 1200 nM; in the experiment on JE2 it was 6200 ± 100 nM. For the same compound, the “Inhibition of topoisomerase IV” value at E. coli topoisomerase IV is “not”. Moreover, the “fold increase in potency against JE2 in the presence of CFX compared to single agent” value in experiment [2] (CFX 9.4 µM) is ~20 fold. Further, in the experiment on JE2, the “Combination index (CI) with CFX” value was determined as 0.96.
For the compound `O=C(O)c1cn(C2CC2)c2cc(N3CCN(C(=S)Nc4cccc(C(F)(F)F)c4)CC3)c(F)cc2c1=O` [Compound 7], the EC50 in experiment [1] (setting [5]) worked out at 3700 ± 500 nM; with S. aureus SH1000, 190 ± 60 nM; in the experiment on E. coli K-12 BW25113, 410 nM; in experiment [2], 140 nM; in the experiment on MRSA (USA300 JE2) [3], 5500 ± 600 nM; in the experiment with MRSA (USA300 JE2) [4] it was 2800 ± 400 nM. Besides, the “fold less potent against JE2 compared to SH1000” value (“fold less potent against JE2” for short) in experiment [1] is listed as > 20 fold.
Turning to `O=C(O)c1cn(C2CC2)c2cc(N3CCN(C(=S)Nc4cccc(F)c4)CC3)c(F)cc2c1=O` [Compound 8], the EC50 in experiment [1] (setting [5]) stood at 4800 ± 900 nM; with S. aureus SH1000 it was 80 ± 10 nM; with E. coli K-12 BW25113, 240 ± 30 nM; in experiment [2] it was 220 ± 50 nM; with MRSA (USA300 JE2) [3] it was 4600 ± 400 nM; in the experiment on MRSA (USA300 JE2) [4], 3400 ± 900 nM. Moreover, the “fold less potent against JE2” value in experiment [1] is reported as > 20 fold. Besides, in the experiment on E. coli K-12 BW25113, the “fold higher potency than other CFX derivatives in E. coli” value is listed as “approximately 2 fold”.
Turning to `O=C(O)c1cn(C2CC2)c2cc(N3CCN(C(=S)Nc4cc(C(F)(F)F)cc(C(F)(F)F)c4)CC3)c(F)cc2c1=O` [Compound 9], the EC50 is 3500 ± 400 nM in experiment [1] (setting [5]); 1500 ± 300 nM with S. aureus SH1000; 390 ± 10 nM with E. coli K-12 BW25113; 470 ± 70 nM in experiment [2]; 2600 ± 300 nM with MRSA (USA300 JE2) [3]; 1800 ± 300 nM in the experiment with MRSA (USA300 JE2) [4]. In addition, the “fold more potent against E. coli than SH1000” value in the experiment with E. coli K-12 BW25113 is on record as ~5 fold.
For the compound `O=C(O)c1cn(C2CC2)c2cc(N3CCN(C(=S)Nc4cccc(Cl)c4)CC3)c(F)cc2c1=O` [Compound 11], the EC50 turned out to be 2800 ± 100 nM in experiment [1] (setting [5]); 120 ± 40 nM with S. aureus SH1000; 460 ± 100 nM in the experiment with E. coli K-12 BW25113; 84 ± 7 nM in experiment [2]; 3200 nM in the experiment on MRSA (USA300 JE2) [3]; 2200 ± 600 nM in the experiment on MRSA (USA300 JE2) [4]. Besides, in experiment [1], the “fold less potent against JE2” value is > 20 fold.
Take `O=C(O)c1cn(C2CC2)c2cc(N3CCN(C(=S)Nc4cc(Cl)cc(Cl)c4)CC3)c(F)cc2c1=O` [Compound 12]: the EC50 turned out to be 3600 ± 400 nM in experiment [1] (setting [5]); 84 ± 7 nM in the experiment with S. aureus SH1000; 420 ± 20 nM in the experiment on E. coli K-12 BW25113; 43 ± 11 nM in experiment [2]; 2900 ± 800 nM in the experiment on MRSA (USA300 JE2) [3]; 800 nM in the experiment with MRSA (USA300 JE2) [4]. Moreover, the “fold less potent against JE2” value in experiment [1] is reported as > 20 fold.
As for `CCn1cc(C(=O)O)c(=O)c2cnc(N3CCN(C(=O)Nc4ccccc4)CC3)nc21` [Compound 15], the half-maximal effective concentration (EC50) is > 12500 nM in experiment [1] (Staphylococcus aureus, single agent, end-point OD600 after 18 h, read-out: EC50 S. aureus (USA300 JE2) Compound only); > 12500 nM in the experiment with S. aureus SH1000; > 12500 nM in the experiment on E. coli K-12 BW25113; > 12500 nM in experiment [2]. The “Inhibition of topoisomerase IV” value on E. coli topoisomerase IV is “not inhibited and not”. Moreover, the “Effect of the presence of CFX on potency” value in experiment [2] (JE2, CFX 9.4 µM) is on record as “unaffected”.
